Data as given in ChEMBL document CHEMBL1149262, “Monoamine transporter binding, locomotor activity, and drug discrimination properties of 3-(4-substituted-phenyl)tropane-2-carboxylic acid methyl ester isomers” (J Med Chem, 2004).
Calls of active or inactive are those of the source. The calls are words filed in the database; no cut-off is given here.

Legend:
Mus musculus [1] = assay: Locomotor activity in CD1 mouse assessed as stimulation at 1 mg/kg, ip after 1 hr relative to control; assay type: functional; details: route intraperitoneal
Mus musculus [2] = assay: Locomotor activity in CD1 mouse assessed as stimulation at 1 mg/kg, ip after 2 hrs relative to control; assay type: functional; details: route intraperitoneal
Mus musculus [3] = assay: Locomotor activity in CD1 mouse assessed as stimulation at 1 mg/kg, ip after 3 hrs relative to control; assay type: functional; details: route intraperitoneal
Mus musculus [4] = assay: Locomotor activity in CD1 mouse assessed as stimulation at 1 mg/kg, ip after 4 hrs relative to control; assay type: functional; details: route intraperitoneal
Rattus norvegicus [5] = assay: Cocaine discrimination in ip dosed CD Albino rat; assay type: functional
Rattus norvegicus [6] = assay: Drug discrimination effect in CD Albino rat assessed as percent of rat choosing cocaine lever at 5.6 mg/kg, ip; assay type: functional; details: route intraperitoneal
Rattus norvegicus [7] = assay: Drug discrimination effect in CD Albino rat assessed as percent of rat choosing cocaine lever at 10 mg/kg, ip; assay type: functional; details: route intraperitoneal
Rattus norvegicus [8] = assay: Drug discrimination effect in CD Albino rat assessed as percent of rat choosing cocaine lever at 17 mg/kg, ip; assay type: functional; details: route intraperitoneal
Mus musculus [9] = assay: Activity in CD1 mouse assessed as circling at 100 mg/kg, ip after 4 hrs; assay type: functional, organism-based; parameters: dose 100 mg/kg
Mus musculus [10] = assay: Activity in CD1 mouse assessed as hind limb splay at 100 mg/kg, ip after 4 hrs; assay type: functional, organism-based; parameters: dose 100 mg/kg; details: Hindlimb
Mus musculus [11] = assay: Activity in CD1 mouse assessed as stimulation at 100 mg/kg, ip after 4 hrs; assay type: functional, organism-based; parameters: dose 100 mg/kg
Mus musculus [12] = assay: Activity in CD1 mouse assessed as convulsions at 100 mg/kg, ip after 4 hrs; assay type: functional, organism-based; parameters: dose 100 mg/kg
Mus musculus [13] = assay: Activity in CD1 mouse assessed as tremor at 100 mg/kg, ip after 4 hrs; assay type: functional, organism-based; parameters: dose 100 mg/kg
Mus musculus [14] = assay: Activity in CD1 mouse assessed as ataxia at 100 mg/kg, ip after 4 hrs; assay type: functional, organism-based; parameters: dose 100 mg/kg
[15] = biological target: Sodium-dependent dopamine transporter (Homo sapiens, UniProt Q01959); assay: Displacement of [3H]WIN-35428 from DAT
[16] = biological target: Sodium-dependent noradrenaline transporter (Homo sapiens, UniProt P23975); assay: Displacement of [3H]nisoxetine from NET
Mus musculus [17] = assay: Locomotor activity in ip dosed CD1 mouse in peak hour; assay type: functional
Mus musculus [18] = assay: Locomotor activity in CD1 mouse assessed as stimulation at 3 mg/kg, ip after 1 hr relative to control; assay type: functional; details: route intraperitoneal
Mus musculus [19] = assay: Locomotor activity in CD1 mouse assessed as stimulation at 3 mg/kg, ip after 2 hrs relative to control; assay type: functional; details: route intraperitoneal
Mus musculus [20] = assay: Locomotor activity in CD1 mouse assessed as stimulation at 3 mg/kg, ip after 3 hrs relative to control; assay type: functional; details: route intraperitoneal
Mus musculus [21] = assay: Locomotor activity in CD1 mouse assessed as stimulation at 3 mg/kg, ip after 4 hrs relative to control; assay type: functional; details: route intraperitoneal
Mus musculus [22] = assay: Locomotor activity in CD1 mouse assessed as stimulation at 10 mg/kg, ip after 1 hr relative to control; assay type: functional; details: route intraperitoneal
Mus musculus [23] = assay: Locomotor activity in CD1 mouse assessed as stimulation at 10 mg/kg, ip after 2 hrs relative to control; assay type: functional; details: route intraperitoneal
Mus musculus [24] = assay: Locomotor activity in CD1 mouse assessed as stimulation at 10 mg/kg, ip after 3 hrs relative to control; assay type: functional; details: route intraperitoneal
Mus musculus [25] = assay: Locomotor activity in CD1 mouse assessed as stimulation at 10 mg/kg, ip after 4 hrs relative to control; assay type: functional; details: route intraperitoneal
Mus musculus [26] = assay: Locomotor activity in CD1 mouse assessed as stimulation at 30 mg/kg, ip after 1 hr relative to control; assay type: functional; details: route intraperitoneal
Mus musculus [27] = assay: Locomotor activity in CD1 mouse assessed as stimulation at 30 mg/kg, ip after 2 hrs relative to control; assay type: functional; details: route intraperitoneal
Mus musculus [28] = assay: Locomotor activity in CD1 mouse assessed as stimulation at 30 mg/kg, ip after 3 hrs relative to control; assay type: functional; details: route intraperitoneal
Mus musculus [29] = assay: Locomotor activity in CD1 mouse assessed as stimulation at 30 mg/kg, ip after 4 hrs relative to control; assay type: functional; details: route intraperitoneal
Mus musculus [30] = assay: Locomotor activity in CD1 mouse assessed as stimulation at 0.3 mg/kg, ip after 1 hr relative to control; assay type: functional; details: route intraperitoneal
Mus musculus [31] = assay: Locomotor activity in CD1 mouse assessed as stimulation at 0.3 mg/kg, ip after 2 hrs relative to control; assay type: functional; details: route intraperitoneal
Mus musculus [32] = assay: Locomotor activity in CD1 mouse assessed as stimulation at 0.3 mg/kg, ip after 3 hrs relative to control; assay type: functional; details: route intraperitoneal
Mus musculus [33] = assay: Locomotor activity in CD1 mouse assessed as stimulation at 0.3 mg/kg, ip after 4 hrs relative to control; assay type: functional; details: route intraperitoneal
Mus musculus [34] = assay: Locomotor activity in CD1 mouse assessed as stimulation at 0.1 mg/kg, ip after 1 hr relative to control; assay type: functional; details: route intraperitoneal
Mus musculus [35] = assay: Locomotor activity in CD1 mouse assessed as stimulation at 0.1 mg/kg, ip after 2 hrs relative to control; assay type: functional; details: route intraperitoneal
Mus musculus [36] = assay: Locomotor activity in CD1 mouse assessed as stimulation at 0.1 mg/kg, ip after 3 hrs relative to control; assay type: functional; details: route intraperitoneal
Mus musculus [37] = assay: Locomotor activity in CD1 mouse assessed as stimulation at 0.1 mg/kg, ip after 4 hrs relative to control; assay type: functional; details: route intraperitoneal
Rattus norvegicus [38] = assay: Drug discrimination effect in CD Albino rat assessed as percent of rat choosing cocaine lever at 0.17 mg/kg, ip; assay type: functional; details: route intraperitoneal
Rattus norvegicus [39] = assay: Drug discrimination effect in CD Albino rat assessed as percent of rat choosing cocaine lever at 0.3 mg/kg, ip; assay type: functional; details: route intraperitoneal
Mus musculus [40] = assay: Activity in CD1 mouse assessed as hyperactivity at 1 mg/kg, ip after 4 hrs; assay type: functional, organism-based; parameters: dose 1 mg/kg
Mus musculus [41] = assay: Activity in CD1 mouse assessed as stereotypy at 1 mg/kg, ip after 4 hrs; assay type: functional, organism-based; parameters: dose 1 mg/kg
Mus musculus [42] = assay: Activity in CD1 mouse assessed as circling at 1 mg/kg, ip after 4 hrs; assay type: functional, organism-based; parameters: dose 1 mg/kg
Mus musculus [43] = assay: Activity in CD1 mouse assessed as stereotypy at 10 mg/kg, ip after 4 hrs; assay type: functional, organism-based; parameters: dose 10 mg/kg
Mus musculus [44] = assay: Activity in CD1 mouse assessed as circling at 10 mg/kg, ip after 4 hrs; assay type: functional, organism-based; parameters: dose 10 mg/kg
Mus musculus [45] = assay: Activity in CD1 mouse assessed as slight or intermittent hyperactivity at 10 mg/kg, ip after 4 hrs; assay type: functional, organism-based; parameters: dose 10 mg/kg
Mus musculus [46] = assay: Activity in CD1 mouse assessed as stereotypy at 100 mg/kg, ip after 4 hrs; assay type: functional, organism-based; parameters: dose 100 mg/kg
Mus musculus [47] = assay: Activity in CD1 mouse assessed as death at 100 mg/kg, ip after 4 hrs; assay type: functional, organism-based; parameters: dose 100 mg/kg
Mus musculus [48] = assay: Activity in CD1 mouse assessed as slight or intermittent hyperactivity at 100 mg/kg, ip after 4 hrs; assay type: functional, organism-based; parameters: dose 100 mg/kg
Rattus norvegicus [49] = assay: Drug discrimination effect in CD Albino rat assessed as percent of rat choosing cocaine lever at 0.1 mg/kg, ip; assay type: functional; details: route intraperitoneal
Mus musculus [50] = assay: Locomotor activity in ip dosed CD1 mouse after 1 hr relative to cocaine; assay type: functional
[51] = biological target: Sodium-dependent serotonin transporter (Homo sapiens, UniProt P31645)
Sodium-dependent serotonin transporter, sequence (P31645 whole entry): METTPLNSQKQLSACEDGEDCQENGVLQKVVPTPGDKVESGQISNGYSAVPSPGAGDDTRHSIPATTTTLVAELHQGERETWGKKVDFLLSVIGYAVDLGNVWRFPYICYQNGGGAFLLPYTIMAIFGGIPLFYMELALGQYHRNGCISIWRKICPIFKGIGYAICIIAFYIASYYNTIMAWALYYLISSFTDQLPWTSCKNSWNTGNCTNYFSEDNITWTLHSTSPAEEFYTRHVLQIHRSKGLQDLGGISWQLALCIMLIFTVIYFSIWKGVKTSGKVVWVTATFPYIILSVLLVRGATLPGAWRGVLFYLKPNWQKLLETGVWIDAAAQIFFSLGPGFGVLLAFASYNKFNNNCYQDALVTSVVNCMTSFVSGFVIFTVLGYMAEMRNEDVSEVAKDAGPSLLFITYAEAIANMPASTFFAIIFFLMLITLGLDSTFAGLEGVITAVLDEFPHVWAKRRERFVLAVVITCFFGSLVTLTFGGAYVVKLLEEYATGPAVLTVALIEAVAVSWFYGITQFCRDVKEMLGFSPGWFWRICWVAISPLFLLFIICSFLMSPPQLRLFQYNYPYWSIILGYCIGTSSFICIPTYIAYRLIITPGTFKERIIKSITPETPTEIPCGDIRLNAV
Description: Displacement of [3H]paroxetine from 5HTT

Sodium-dependent noradrenaline transporter, sequence (P23975 whole entry): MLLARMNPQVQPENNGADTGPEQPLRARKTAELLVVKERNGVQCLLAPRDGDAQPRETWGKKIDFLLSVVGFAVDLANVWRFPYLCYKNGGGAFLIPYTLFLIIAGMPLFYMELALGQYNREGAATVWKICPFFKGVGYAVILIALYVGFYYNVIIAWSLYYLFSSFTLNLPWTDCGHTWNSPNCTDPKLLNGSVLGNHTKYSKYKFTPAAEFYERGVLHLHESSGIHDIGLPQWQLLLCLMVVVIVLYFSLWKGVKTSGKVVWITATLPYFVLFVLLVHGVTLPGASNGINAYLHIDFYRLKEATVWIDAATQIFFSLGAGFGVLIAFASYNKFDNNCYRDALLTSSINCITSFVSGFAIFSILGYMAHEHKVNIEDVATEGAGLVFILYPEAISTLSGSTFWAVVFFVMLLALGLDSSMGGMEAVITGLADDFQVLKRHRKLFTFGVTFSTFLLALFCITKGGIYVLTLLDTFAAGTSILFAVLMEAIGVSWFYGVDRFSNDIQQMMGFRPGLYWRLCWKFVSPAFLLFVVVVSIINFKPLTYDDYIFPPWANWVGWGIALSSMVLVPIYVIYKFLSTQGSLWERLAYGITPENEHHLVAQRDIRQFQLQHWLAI
Sodium-dependent dopamine transporter, sequence (Q01959 whole entry): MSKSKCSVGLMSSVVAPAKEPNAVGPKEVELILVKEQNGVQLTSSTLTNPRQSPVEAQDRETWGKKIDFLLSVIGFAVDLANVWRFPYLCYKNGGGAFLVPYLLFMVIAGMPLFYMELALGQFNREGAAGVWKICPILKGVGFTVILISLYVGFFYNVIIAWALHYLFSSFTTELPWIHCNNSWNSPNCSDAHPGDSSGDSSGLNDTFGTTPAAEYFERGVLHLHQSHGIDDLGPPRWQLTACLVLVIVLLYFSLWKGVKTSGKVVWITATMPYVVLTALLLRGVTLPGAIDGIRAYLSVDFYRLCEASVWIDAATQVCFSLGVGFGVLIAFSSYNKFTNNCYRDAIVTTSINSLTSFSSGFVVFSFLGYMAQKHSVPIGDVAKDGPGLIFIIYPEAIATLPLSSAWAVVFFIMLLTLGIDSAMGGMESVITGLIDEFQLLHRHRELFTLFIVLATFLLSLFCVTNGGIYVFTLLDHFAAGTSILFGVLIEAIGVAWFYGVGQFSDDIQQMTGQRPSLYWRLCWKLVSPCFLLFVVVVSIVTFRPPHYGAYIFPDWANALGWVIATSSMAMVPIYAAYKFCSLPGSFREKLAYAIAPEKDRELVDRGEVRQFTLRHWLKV

COC(=O)[C@H]1C2CCC(C[C@@H]1c1ccccc1)N2C (stereo not given in full)
Activity (Mus musculus [1]): 9%
Activity (Mus musculus [2]): 35%
Activity (Mus musculus [3]): 12%
Activity (Mus musculus [4]): -60%
ED50 (Rattus norvegicus [5]): 7.66 mg/kg
Activity (Rattus norvegicus [6]): 29%
Activity (Rattus norvegicus [7]): 67%
Activity (Rattus norvegicus [8]): 100%
Activity (Mus musculus [9]): Active
Activity (Mus musculus [10]): Active
Activity (Mus musculus [11]): Active
Activity (Mus musculus [12]): Active
Activity (Mus musculus [13]): Active
Activity (Mus musculus [14]): Active
IC50 [15]: 670 nM
IC50 [16]: > 10000 nM
ED50 (Mus musculus [17]): 11.7 mg/kg
Activity (Mus musculus [18]): -14%
Activity (Mus musculus [19]): -20%
Activity (Mus musculus [20]): -9%
Activity (Mus musculus [21]): -50%
Activity (Mus musculus [22]): 35%
Activity (Mus musculus [23]): 16%
Activity (Mus musculus [24]): -16%
Activity (Mus musculus [25]): -27%
Activity (Mus musculus [26]): 138%
Activity (Mus musculus [27]): 122%
Activity (Mus musculus [28]): 69%
Activity (Mus musculus [29]): 12%

COC(=O)[C@@H]1C2CC[C@H](C[C@@H]1c1ccc(I)cc1)N2C
Activity (Mus musculus [30]): 415%
Activity (Mus musculus [31]): 1765%
Activity (Mus musculus [32]): 1289%
Activity (Mus musculus [33]): 900%
Activity (Mus musculus [1]): 1489%
Activity (Mus musculus [2]): 1721%
Activity (Mus musculus [3]): 2099%
Activity (Mus musculus [4]): 2546%
Activity (Mus musculus [34]): -12%
Activity (Mus musculus [35]): 38%
Activity (Mus musculus [36]): -25%
Activity (Mus musculus [37]): 62%
ED50 (Rattus norvegicus [5]): 0.2 mg/kg
Activity (Rattus norvegicus [38]): 25%
Activity (Rattus norvegicus [39]): 100%
Activity (Mus musculus [40]): Active
Activity (Mus musculus [41]): Active
Activity (Mus musculus [42]): Active
Activity (Mus musculus [43]): Active
Activity (Mus musculus [44]): Active
Activity (Mus musculus [45]): Active
Activity (Mus musculus [46]): Active
Activity (Mus musculus [10]): Active
Activity (Mus musculus [47]): Active
Activity (Mus musculus [48]): Active
IC50 [15]: 1.3 nM
IC50 [16]: 36 nM
Ki [16]: 22 nM
ED50 (Mus musculus [17]): 0.4 mg/kg
Activity (Mus musculus [18]): 770%
Activity (Mus musculus [19]): 145%
Activity (Mus musculus [20]): 327%
Activity (Mus musculus [21]): 794%
Activity (Rattus norvegicus [49]): 22%
Ratio (Mus musculus [50]): 4.4
Ki [51]: 0.38 nM
